The target of assay [1] is T1, cdc42 (Homo sapiens, UniProt P60953).
T1 construct: made in house
The experiment in a line: Cdc42 GTP Binding Domain Inhibition Assay. The note with it: read-out: Cdc42: % inh. The procedure:
(§1) Protocol for Cdc42 and Rheb GTP Binding Domain Inhibition Assay
(§2) The following method was developed as specific assay for cdc42 and Rheb proteins.
(§3) • 25 mM Tris-HCl, pH 7.4 • 27 mM KCl • 137 mM NaCl • 1 mM MgCl2 • 1 mM DTT Buffer-II: • 50 mM Tris-HCl, pH 7.0 • 1 mM MgCl2 • 1 mM DTT
(§4) The small GTPases proteins cdc42 and Rheb were expressed as His-tagged proteins. For the assay, the cdc42 and Rheb purified small GTPases proteins were diluted in Buffer-I or Buffer-II to a final concentration of 10-30 μg/mL. 200 μL of each diluted protein was added to a nickel-coated 96-well plate and incubated overnight at […]. Then the protein solution was discarded and 200 μL of Buffer-I or Buffer-II was added to each well in the presence of 1% DMSO. Compounds to be tested were added to the protein-coated wells at final concentration of 20 μM, and incubated for 3 hours at room temperature with and without 10-30 μg/mL of Sos added to the final hour of the incubation. When performing IC50 measurements a serial dilution of all tested concentrations was added. Then Cy3-GTP or Cy5-GTP was added to each well to a final concentration of 100 nM. The labeled GTP was incubated for 45 minutes at room temperature. Following GTP incubation, wells were washed 3× in Buffer-I or Buffer-II and 200 μL of Buffer-I or Buffer-II was added to each well. Following washes, the amount of bound labeled-GTP was measured using a SpectraMax M3 (Molecular Devices).

Assay [2] has as its system Akt phosphorylation. The experiment in a line: Akt Phosphorylation Assay (western blot), Panc-1. In kind it is cell-based, human. The settings on record: at 10 μM, * = activation. An outline of the steps: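 Phospho-Akt (Ser473) was measured by western blot in lysates of KRas G12D Panc-1 cells exposed to test compound for 6 h at 37 °C, either at 10 μM final with 0.3% DMSO or as serial dilutions for IC50. One format used overnight 0.5% FBS starvation followed by a 15 min pulse of 1.5 ng/ml EGF. The other used cells in 10% FBS with no stimulation.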
On the technique in general: A western blot detects proteins with antibodies after separation by electrophoresis.

Assay [3] concerns the target T2, Rheb (Homo sapiens, UniProt Q15382).
T2 construct: made in house
Nature of the assay: Rheb GTP Binding Domain Inhibition Assay. The note with it: read-out: Rheb: % inh. How it is done: as §1, §2, §3, §4

In assay [4] the test system is MAPK p38 phosphorylation. Nature of the assay: MAPK p38 Activation Assay (western blot), Panc-1. The format is cell-based, human. The settings on record: at 10 μM, Panc-1 pancreatic cancer cell line; starred symbols = activation. Summed up: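 Panc-1 cells (KRas G12D) were treated with compound for 6 h at 37 °C, at 10 μM or as serial dilutions for IC50, with 0.3% DMSO. Method 1 used overnight serum-starved cells (0.5% FBS) stimulated with 1.5 ng/ml EGF for 15 min; Method 2 used unstimulated cells in 10% FBS. Phospho-p38 (Thr180/Tyr182) was detected by western blot.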

T1 sequence (P60953 whole entry): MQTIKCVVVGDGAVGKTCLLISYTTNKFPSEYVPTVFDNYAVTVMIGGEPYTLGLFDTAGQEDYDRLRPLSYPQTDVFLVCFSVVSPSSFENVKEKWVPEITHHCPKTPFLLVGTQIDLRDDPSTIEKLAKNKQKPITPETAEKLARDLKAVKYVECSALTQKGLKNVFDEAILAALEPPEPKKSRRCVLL
T2 sequence (Q15382 whole entry): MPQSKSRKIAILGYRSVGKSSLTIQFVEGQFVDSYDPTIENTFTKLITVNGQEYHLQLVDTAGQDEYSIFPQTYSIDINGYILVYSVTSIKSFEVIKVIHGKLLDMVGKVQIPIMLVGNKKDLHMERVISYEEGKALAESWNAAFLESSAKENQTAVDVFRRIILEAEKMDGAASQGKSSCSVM

Regarding `CCn1ccc(-c2cn3nc(-c4nccn4C)nc(Nc4cc(OC)ncn4)c3c2C)n1` [Compound 64, 6-(1-Ethyl-1H-pyrazol-3-yl)-N-(6-methoxypyrimidin-4-yl)-5-methyl-2-(1-methyl-1H-imidazol-2-yl)pyrrolo[2,1-f][1,2,4]triazin-4-amine], the values for the inhibition at 20 µM in assay [1] and in assay [3] were 76 to 100% and 50 to 75%, respectively. Further, the “% inh of Akt phosphorylation in Panc-1” value in assay [2] is reported as “D* (85-100% activation)”. Besides, the “% inh of MAPK p38 in Panc-1” value in assay [4] is given as “H* (H* ≥ 100% activation)”.

With `Cc1c(-c2ccn(C(C)C)n2)cn2nc(-c3nccn3C)nc(Nc3ccccn3)c12` [Compound 57, 6-(1-Isopropyl-1H-pyrazol-3-yl)-5-methyl-2-(1-methyl-1H-imidazol-2-yl)-N-(pyridin-2-yl)pyrrolo[2,1-f][1,2,4]triazin-4-amine], the inhibition at 20 µM in assay [1] and in assay [3] was 76 to 100% each time. The “% inh of Akt phosphorylation in Panc-1” value in assay [2] was “D* (85-100% activation)”. Besides, the “% inh of MAPK p38 in Panc-1” value in assay [4] is recorded as “E* (E* = 1-30% activation)”.

For the compound `Cc1c(-c2ccn(C(C)C)n2)cn2nc(-c3nccn3C)nc(Nc3ccncc3)c12` [Compound 52, 6-(1-Isopropyl-1H-pyrazol-3-yl)-5-methyl-2-(1-methyl-1H-imidazol-2-yl)-N-(pyridin-4-yl)pyrrolo[2,1-f][1,2,4]triazin-4-amine], the inhibition at 20 µM in assay [1] is 1 to 25%; in assay [3], 0%. Also, the “% inh of Akt phosphorylation in Panc-1” value in assay [2] is listed as “B (26-49% inhibition)”. Besides, the “% inh of MAPK p38 in Panc-1” value in assay [4] is listed as “F* (F* = 31-74% activation)”.

Consider `COc1cccc(-c2cn3nc(-c4nccn4C)nc(N[C@@H]4CC[C@@H](OC)C4)c3c2-c2ccccn2)c1F` (racemic) [Compound 46, rac 6-(2-Fluoro-3-methoxyphenyl)-N-((1R,3R)-3-methoxycyclopentyl)-2-(1-methyl-1H-imidazol-2-yl)-5-(pyridin-2-yl)pyrrolo[2,1-f][1,2,4]triazin-4-amine], for which the inhibition at 20 µM in assay [1] and in assay [3] was 50 to 75% each time. For the same compound, the “% inh of Akt phosphorylation in Panc-1” value in assay [2] is 0 (0% inhibition). Further, in assay [4], the “% inh of MAPK p38 in Panc-1” value was “H (H = 100% inhibition)”.

Consider `COc1cccc(-c2cn3nc(-c4nccn4C)nc(N[C@H]4C[C@H](OC)C4)c3c2-c2ccn(C)n2)c1F` [Compound 47, 6-(2-Fluoro-3-methoxyphenyl)-N-((1r,3r)-3-methoxycyclobutyl)-2-(1-methyl-1H-imidazol-2-yl)-5-(1-methyl-1H-pyrazol-3-yl)pyrrolo[2,1-f][1,2,4]triazin-4-amine], for which the inhibition at 20 µM in assay [1] and in assay [3] was 1 to 25% throughout. Also, the “% inh of Akt phosphorylation in Panc-1” value in assay [2] is on record as “C* (46-84% activation)”. The “% inh of MAPK p38 in Panc-1” value in assay [4] is on record as “F (F = 31-74% inhibition)”.

`COc1cc(-c2cn3nc(-c4nccn4C)nc(Nc4cc(OC)ncn4)c3c2C)ccn1` [Compound 50, 6-(2-Methoxypyridin-4-yl)-N-(6-methoxypyrimidin-4-yl)-5-methyl-2-(1-methyl-1H-imidazol-2-yl)pyrrolo[2,1-f][1,2,4]triazin-4-amine]: the inhibition at 20 µM in assay [1] and in assay [3] was 26 to 49% throughout. The “% inh of Akt phosphorylation in Panc-1” value in assay [2] is “D* (85-100% activation)”.

Turning to `COc1ccc(-c2cn3nc(-c4nccn4C)nc(Nc4cc(OC)ncn4)c3c2C)cn1` [Compound 66, 6-(6-Methoxypyridin-3-yl)-N-(6-methoxypyrimidin-4-yl)-5-methyl-2-(1-methyl-1H-imidazol-2-yl)pyrrolo[2,1-f][1,2,4]triazin-4-amine], the figures for the inhibition at 20 µM in assay [1] and in assay [3] were 76 to 100% and 50 to 75%, respectively. Also, the “% inh of Akt phosphorylation in Panc-1” value in assay [2] is on record as “D* (85-100% activation)”. Also, in assay [4], the “% inh of MAPK p38 in Panc-1” value is recorded as “H* (H* ≥ 100% activation)”.

As for `Cc1c(-c2ccn(C(C)C)n2)cn2nc(-c3nccn3C)nc(Nc3cc(C4CC4)no3)c12` [Compound 69, 3-Cyclopropyl-N-(6-(1-isopropyl-1H-pyrazol-3-yl)-5-methyl-2-(1-methyl-1H-imidazol-2-yl)pyrrolo[2,1-f][1,2,4]triazin-4-yl)isoxazol-5-amine], the inhibition at 20 µM in assay [1] is 0%; in assay [3] it was 1 to 25%. In addition, in assay [2], the “% inh of Akt phosphorylation in Panc-1” value is on record as “D* (85-100% activation)”. Further, the “% inh of MAPK p38 in Panc-1” value in assay [4] is “H* (H* ≥ 100% activation)”.

As to `COCCO[C@H]1C[C@H](Nc2nc(-c3nccn3C)nn3cc(-c4cccc(OC)c4F)c(-c4ccccc4)c23)C1` [Compound 44, 6-(2-Fluoro-3-methoxyphenyl)-N-((1r,3r)-3-(2-methoxyethoxy)cyclobutyl)-2-(1-methyl-1H-imidazol-2-yl)-5-phenylpyrrolo[2,1-f][1,2,4]triazin-4-amine], the inhibition at 20 µM in assay [1] and in assay [3] was 26 to 49% throughout. Further, the “% inh of Akt phosphorylation in Panc-1” value in assay [2] is reported as “B (26-49% inhibition)”. Besides, in assay [4], the “% inh of MAPK p38 in Panc-1” value is “H* (H* ≥ 100% activation)”.

For `COc1cnc(Nc2nc(-c3nccn3C)nn3cc(-c4ccn(C(C)C)n4)c(C)c23)nc1` [Compound 56, 6-(1-Isopropyl-1H-pyrazol-3-yl)-N-(5-methoxypyrimidin-2-yl)-5-methyl-2-(1-methyl-1H-imidazol-2-yl)pyrrolo[2,1-f][1,2,4]triazin-4-amine], the inhibition at 20 µM in assay [1] was in the range of 26 to 49%; in assay [3], 50 to 75%. Also, the “% inh of Akt phosphorylation in Panc-1” value in assay [2] is “B* (26-49% activation)”. The “% inh of MAPK p38 in Panc-1” value in assay [4] is “H* (H* ≥ 100% activation)”.

Consider `Cc1c(-c2ccn(C(C)C)n2)cn2nc(-c3nccn3C)nc(Nc3nnc(C4CC4)o3)c12` [Compound 67, 5-Cyclopropyl-N-(6-(1-isopropyl-1H-pyrazol-3-yl)-5-methyl-2-(1-methyl-1H-imidazol-2-yl)pyrrolo[2,1-f][1,2,4]triazin-4-yl)-1,3,4-oxadiazol-2-amine], for which the inhibition at 20 µM lay in the range of 26 to 49% in assay [1] and 50 to 75% in assay [3]. Further, the “% inh of Akt phosphorylation in Panc-1” value in assay [2] was “D* (85-100% activation)”. In assay [4], the “% inh of MAPK p38 in Panc-1” value is listed as “H* (H* ≥ 100% activation)”.

Consider `COc1cncnc1Nc1nc(-c2nccn2C)nn2cc(-c3ccn(C(C)C)n3)c(C)c12` [Compound 73, 6-(1-Isopropyl-1H-pyrazol-3-yl)-N-(5-methoxypyrimidin-4-yl)-5-methyl-2-(1-methyl-1H-imidazol-2-yl)pyrrolo[2,1-f][1,2,4]triazin-4-amine], for which the inhibition at 20 µM in assay [1] and in assay [3] was 50 to 75% throughout. Moreover, the “% inh of Akt phosphorylation in Panc-1” value in assay [2] is “D* (85-100% activation)”.

As to `COc1cc(Nc2nc(-c3nccn3C)nn3cc(-c4ccncc4)c(C)c23)ncn1` [Compound 49, N-(6-Methoxypyrimidin-4-yl)-5-methyl-2-(1-methyl-1H-imidazol-2-yl)-6-(pyridin-4-yl)pyrrolo[2,1-f][1,2,4]triazin-4-amine], the inhibition at 20 µM in assay [1] lay in the range of 1 to 25%; in assay [3], 26 to 49%. Moreover, in assay [2], the “% inh of Akt phosphorylation in Panc-1” value is “D* (85-100% activation)”.

With `COc1cc(Nc2nc(-c3nccn3C)nn3cc(-c4cccnc4)c(C)c23)ncn1` [Compound 48, N-(6-Methoxypyrimidin-4-yl)-5-methyl-2-(1-methyl-1H-imidazol-2-yl)-6-(pyridin-3-yl)pyrrolo[2,1-f][1,2,4]triazin-4-amine], the inhibition at 20 µM in assay [1] and in assay [3] was 50 to 75% in each case. Further, in assay [2], the “% inh of Akt phosphorylation in Panc-1” value is listed as “D* (85-100% activation)”.

Take `Cc1c(-c2ccn(C(C)C)n2)cn2nc(-c3nccn3C)nc(Nc3cc(C4CC4)n[nH]3)c12` [Compound 68, N-(3-Cyclopropyl-1H-pyrazol-5-yl)-6-(1-isopropyl-1H-pyrazol-3-yl)-5-methyl-2-(1-methyl-1H-imidazol-2-yl)pyrrolo[2,1-f][1,2,4]triazin-4-amine]: the inhibition at 20 µM in assay [1] and in assay [3] was 76 to 100% throughout. The “% inh of Akt phosphorylation in Panc-1” value in assay [2] is on record as “D* (85-100% activation)”.

As for `COc1ccc(Nc2nc(-c3nccn3C)nn3cc(-c4ccn(C(C)C)n4)c(C)c23)nn1` [Compound 74, 6-(1-Isopropyl-1H-pyrazol-3-yl)-N-(6-methoxypyridazin-3-yl)-5-methyl-2-(1-methyl-1H-imidazol-2-yl)pyrrolo[2,1-f][1,2,4]triazin-4-amine], the inhibition at 20 µM in assay [1] and in assay [3] was 0% each time. For the same compound, the “% inh of Akt phosphorylation in Panc-1” value in assay [2] is listed as “D* (85-100% activation)”.

Values taken from US12459951B2, “Compounds that interact with RAS superfamily proteins for treatment of cancers, inflammatory diseases, rasopathies, and fibrotic disease” (SHY Therapeutics, LLC, priority 2022, dated 2025).
